Assay: passive permeability, PAMPA, ADME assay (AID 1508612)
Conditions: pH 7.4, 30.0 min, 50.0 µM

Papp | Structure (SMILES)
872 ×10⁻⁶ cm/s | CCN1C(=O)c2ccccc2[S@](=O)c2ccc(C(=O)NCc3ccc(C#N)cc3)cc21
1.5 ×10⁻⁶ cm/s | CC1(C)CCC(CN2CCN(c3ccc(C(=O)NS(=O)(=O)c4ccc(NCC5CCOCC5)c([N+](=O)[O-])c4)c(Oc4cnc5[nH]ccc5c4)c3)CC2)=C(c2ccc(Cl)cc2)C1
387 ×10⁻⁶ cm/s | Cc1ccc(NS(=O)(=O)c2c(C)[nH]c(C)c2C(=O)N2CCCC2)cc1Cl
298 ×10⁻⁶ cm/s | CC/C=C\C/C=C\C/C=C\C/C=C\C/C=C\C/C=C\CCC(=O)NCCO
3.2 ×10⁻⁶ cm/s | COc1ccc2c3c([nH]c2c1)C1CC2C(CC(O)C(OC)C2CO)CN1CC3 (stereo not drawn)
550 ×10⁻⁶ cm/s | COc1ccc(C(=O)NC2CCN(c3cnn(CC4CC4)c(=O)c3)CC2)c(OC)n1
> 1000 ×10⁻⁶ cm/s | CCOc1ccc(-c2cn3c(n2)sc2cc(C(=O)NCCCN(CC)CC)ccc23)cc1
< 1 ×10⁻⁶ cm/s | O=C(Nc1ccc(S(=O)(=O)Nc2nccs2)cc1)c1ccnc(-c2ccccc2)c1
< 1 ×10⁻⁶ cm/s | O=C(NCCc1ccccc1)C1CCN(c2nc(-c3ccc(Br)cc3)cs2)CC1
1.2 ×10⁻⁶ cm/s | O=C(O)c1ccncc1Nc1nn(CCN2CCC(F)(F)CC2)c2ccc(F)cc12
905 ×10⁻⁶ cm/s | O=C(NCCCNc1nc(Nc2cccc(CN3CCOCC3)c2)ncc1C1CC1)C1CCC1
106 ×10⁻⁶ cm/s | Nc1cc2nc3ccccc3oc-2cc1=O
990 ×10⁻⁶ cm/s | Cc1cc(C)c(C(=O)Nc2cccc([S+](=O)([O-])N3CCCCCC3)c2)[nH]1
606 ×10⁻⁶ cm/s | NC(=O)C1CCN(c2nc(-c3ccccc3-c3ccccc3)cs2)CC1
371 ×10⁻⁶ cm/s | Oc1ccc(CNc2cccnc2)c2cccnc12
462 ×10⁻⁶ cm/s | NC(=O)C1CCN(c2nc(-c3ccccc3Br)cs2)CC1
50.8 ×10⁻⁶ cm/s | O=C(Nc1nc(-c2ccccc2)cs1)c1ccncc1NS(=O)(=O)c1cccnc1
1.1 ×10⁻⁶ cm/s | CC1(C)CCC(c2ccc(Cl)cc2)=C(CN2CCN(c3ccc(C(=O)NS(=O)(=O)c4ccc(N[C@H](CCN5CCOCC5)CSc5ccccc5)c(S(=O)(=O)C(F)(F)F)c4)cc3)CC2)C1
> 1000 ×10⁻⁶ cm/s | Nc1cc(-c2nc(Nc3ccc(F)c(F)c3)c3ccccc3n2)ccn1
11.1 ×10⁻⁶ cm/s | Cn1cc(C2=C(c3cn(CCCSC(=N)N)c4ccccc34)C(=O)NC2=O)c2ccccc21
478 ×10⁻⁶ cm/s | CC(C)c1ccccc1-c1nc2c(c(NCc3ccc(-c4cccnc4)cc3)n1)CNC2
42 ×10⁻⁶ cm/s | Fc1cc(Nc2nc(-c3ccncc3)nc3ccccc23)ccc1-c1ccc2[nH]ncc2c1
< 1 ×10⁻⁶ cm/s | O=C(Nc1ccc(S(=O)(=O)Nc2nccs2)cc1)c1cccnc1
> 1000 ×10⁻⁶ cm/s | COC(=O)c1ccccc1NC(=O)c1ccccc1OC(F)F
> 1000 ×10⁻⁶ cm/s | CCN(CC)S(=O)(=O)c1cccc(C(=O)Nc2ccc(C#N)cc2)c1
328 ×10⁻⁶ cm/s | COc1cc2nccc(Oc3ccc(NC(=O)Nc4cc(C)on4)c(Cl)c3)c2cc1OC

Papp | Structure (SMILES)
111 ×10⁻⁶ cm/s | O=C(O)c1cccc(-c2noc(-c3ccccc3F)n2)c1
> 1000 ×10⁻⁶ cm/s | CC1CN(c2ccc(Nc3nc(-c4ccncc4)nc4ccccc34)cc2F)CC(C)O1 (stereo not drawn)
741 ×10⁻⁶ cm/s | CN(C(=O)CSc1nc2ccc(NC(=O)c3ccc(F)cc3)cc2s1)c1ccccc1
< 1 ×10⁻⁶ cm/s | O=C1CN(C(=O)CCC(=O)N2CCc3c(nc4cc(-c5ccccc5)[nH]n4c3=O)C2)c2ccccc2N1
134 ×10⁻⁶ cm/s | C=CCc1cccc(CNc2ccc(S(=O)(=O)Nc3nccs3)cc2)c1O
> 1000 ×10⁻⁶ cm/s | CC1CCc2cc(F)ccc2N1C(=O)CSc1nnc2c(n1)[nH]c1ccccc12 (stereo not drawn)
> 1000 ×10⁻⁶ cm/s | COc1ccc(-c2ccc3ncc(Nc4cccnc4OC)n3n2)cn1
< 1 ×10⁻⁶ cm/s | CCN1CCCC1CNC(=O)c1cc(S(=O)(=O)CC)c(N)cc1OC (stereo not drawn)
7.01 ×10⁻⁶ cm/s | Cc1noc(C)c1Cc1ccc(C(=O)N2CCc3c(nc4cc(-c5ccccc5)[nH]n4c3=O)C2)o1
257 ×10⁻⁶ cm/s | C1CCc2nc3c(nc2C1)CCCC3
95.6 ×10⁻⁶ cm/s | NC(=O)C1CCN(c2ncc(-c3cccc(N4CCCC4)c3)s2)CC1
67.6 ×10⁻⁶ cm/s | Cn1nnnc1Sc1ncnc2sccc12
> 1000 ×10⁻⁶ cm/s | [2H]C([2H])(Nc1nc(-c2ccccc2C([2H])(C([2H])([2H])[2H])C([2H])([2H])[2H])ncc1C)c1ccc(-n2ccnn2)cc1
76.8 ×10⁻⁶ cm/s | O=C(N/N=C/c1ccc(Sc2ccccn2)o1)c1ccncc1
10.8 ×10⁻⁶ cm/s | O=S(=O)(Nc1nccs1)c1ccc(NCc2cc(Cl)ccc2O)cc1
3 ×10⁻⁶ cm/s | O=C(Nc1ccc([S+](=O)([O-])Nc2nccs2)cc1)c1ccccn1
> 1000 ×10⁻⁶ cm/s | Cc1cc(C)nc(NC(=S)N2CCN(c3cc(C(F)(F)F)nc4ccccc34)CC2)c1
265 ×10⁻⁶ cm/s | O=[S+]([O-])(Nc1nccs1)c1ccc(NCc2cc(Cl)cc(Br)c2O)cc1
> 1000 ×10⁻⁶ cm/s | Cc1ccc(-c2cc(C(=O)Nc3ccccn3)c3ccccc3n2)cc1
> 1000 ×10⁻⁶ cm/s | Cn1c(=O)c2c(-c3ccc(Cl)cc3)n(CCc3ccccc3)cc2n(C)c1=O
971 ×10⁻⁶ cm/s | COc1ccc(Cl)cc1C(=O)Nc1ccc(NC(=O)c2ccco2)cc1
412 ×10⁻⁶ cm/s | CN(C)CC(=O)NC1CCCc2c1cnn2-c1ccc(F)cc1F (stereo not drawn)
> 1000 ×10⁻⁶ cm/s | CCOc1ccc(CCNC(=O)c2cc3ccccc3o2)cc1OCC
1.3 ×10⁻⁶ cm/s | CC(C)c1cc(C(=O)N2CC[C@@H](NC(=O)C3CC3)C2)n[nH]1
176 ×10⁻⁶ cm/s | O=C1CCCC2=C1C1(CCS(=O)(=O)C1)N=C(Nc1nc3ccccc3o1)N2 (stereo not drawn)

Structure (SMILES) | Papp
CCOc1ccc(CCNC(=O)c2cc3ccncc3n2Cc2cccc(C)n2)cc1OCC | 3.77 ×10⁻⁶ cm/s
COc1ccc(Cl)cc1NC(=O)c1sc2nc3c(cc2c1N)N1CCC3CC1 | 55 ×10⁻⁶ cm/s
